For assay [1], the system named is apoptosis-related proteins in MDA-MB-231 cells. Nature of the assay: Western blot of apoptosis-related proteins, MDA-MB-231. It counts as cell-based, human. As to conditions: MDA-MB-231, 2L 1.1, 3.3, 10 μM, 24 h. The protocol:
MDA-MB-231 and MCF-7 cells were cultured in a 6-well plate with the density of 3 × 10^5 cells/well and treated with different concentrations of 2L (0, 1.1, 3.3, 10 μM) for 24 h. The cells were lysed in radioimmunoprecipitation assay (RIPA) buffer (Beyotime, Shanghai, China) containing 1% protease inhibitor cocktail and 1 mM phenylmethylsulfonyl fluoride (PMSF, Sigma-Aldrich, St. Louis, MO, USA). After centrifugation, the supernatant was collected and quantified by BCA assay (Beyotime). Lysates were mixed with the loading buffer (5 ×) and denatured by boiling for 10 min. Then, the equivalent samples were separated via 10–15% sodium dodecyl–sulfate polyacrylamide gel electrophoresis (SDS-PAGE), transferred to 0.45 µm immunoblot poly(vinylidene fluoride) (PVDF) membranes (Merck Millipore, Darmstadt, Germany) at 4 °C, and blocked in 5% skimmed milk in TBST for 1 h at room temperature. The membranes were incubated overnight at 4 °C with specific primary antibodies. After washing three times with TBST, the PVDF membranes were incubated with horseradish peroxidase (HRP)-conjugated secondary antibodies at rt for 1 h. Lastly, the resulting bands were visualized by a Bio-Rad ChemiDoc imaging system ([…]) using enhanced chemiluminescence reagents (Millipore, Billerica, MA, USA). The details of the corresponding primary antibodies were as follows: Bax (2772; Cell Signaling Technology), Bcl-2 (3498; Cell Signaling Technology), cleaved caspase-3 (9661; Cell Signaling Technology), cleaved caspase-9 (9505; Cell Signaling Technology), and PARP (9542; Cell Signaling Technology). The HRP-secondary antibodies were also obtained from Cell Signaling Technology (Boston, MA, USA).

In assay [2] the test system is MCF-7 cells. The assay can be described thus: Mitochondrial membrane potential JC-1 assay, MCF-7. The assay is classed as cell-based, human. As to conditions: MCF-7, 24 h, flow cytometry. The protocol:
(§1) The MMP was assayed using a JC-1 assay kit (Beyotime, Shanghai, China) according to the manufacturer’s instructions. In brief, MDA-MB-231 and MCF-7 cells were plated in 24-well plates at a density of 6 × 10^4 cells per well. After intervention with 2L (0, 10 μM) for 24 h, the cells were washed once with PBS. Cell culture solution (0.5 mL) and JC-1 working solution (0.5 mL) were successively added, mixed well, and incubated at 37 °C for 20 min in the dark. After washing twice with 1 × JC-1 staining buffer, the cells were resuspended in fresh culture medium. The graphical results were observed under a fluorescence microscope.
(§2) MDA-MB-231 and MCF-7 cells were incubated in 6-well plates at a density of 3 × 10^5 cells per dish and exposed to 2L for 24 h. Cell culture media (1 mL) and JC-1 staining working solution (1 mL) were added, thoroughly mixed, and incubated at 37 °C for 20 min. After washing twice with 1 × JC-1 staining buffer, the cells were collected and resuspended in 500 μL JC-1 staining buffer and then instantly analyzed using a flow cytometry.

Assay [3] concerns MCF-7 cells. Nature of the assay: DNA content / cell cycle of PI-stained cells by flow cytometry, MCF-7. The assay is classed as cell-based, human. As to conditions: MCF-7, 10.0 μM. The source says:
It is commonly acknowledged that […] DNA fragmentation is a crucial hallmark of cell apoptosis. Next, we assessed the influence of 2L on the DNA content of PI-stained BC cells using flow cytometry. […] In turn, treatment with 2L led to an apparent enhancement of the number of MCF-7 cells, from 51.7% to 63.0%. […] An augmentation of DNA distribution in the SubG1 peak was representative of the occurrence of apoptosis in 2L-exposed groups, which further confirmed that 2L could induce the apoptosis of BC cells. In addition, the quantitative analysis of DNA distribution for the subG1, G0/G1, S, and G2/M phases appeared to show similar alterations (Figure 4B,D).
A general note: In flow cytometry, cells or beads pass a laser one at a time.

A further assay concerns MDA-MB-231 cells. Nature of the assay: Mitochondrial membrane potential JC-1 assay, MDA-MB-231. The assay is classed as cell-based, human. As to conditions: MDA-MB-231, 24 h, flow cytometry. The protocol: as §1, §2
Assay [4] deals with MCF-7 cells. The assay can be described thus: MTT anti-proliferative assay, MCF-7. The assay is classed as cell-based. As to conditions: Homo sapiens, MCF7, 48 h. The protocol: The in vitro anti-proliferative activity of all synthesized analogues against MDA-MB-231 and MCF-7 cells was tested using the 3-(4,5-dimethylthiazol-2-yl)-[…] (MTT) method. […] Usually, Dox has been used as a positive control in many basic studies, especially drug screening assay. […] In the meantime, the cytotoxic activity of 2K–2N, PTE, and Dox against MCF-10A (human breast epithelial cell line) was examined. […] By contrast, the substitution of a saturated six-membered nitrogen heterocyclic ring on the side chain is extremely favorable for enhancing anti-BC efficacy (2L–2N vs. 1, PTE, 2A–2J). Based on the preceding analysis, analogue 2L was selected as the most promising anti-BC agent and used in the follow-up study.
The human breast cancer cell lines MDA-MB-231 and MCF-7 were purchased from the Chinese Academy of Science and cultured in Dulbecco’s modified Eagle’s medium (DMEM, Gibco, New York, NY, USA) containing 10% fetal bovine serum (FBS), 2 mM L-glutamine, 100 U/mL penicillin, and 100 μg/mL streptomycin. Then, the cells were maintained in a humidified incubator at 37 °C in the presence of 5% CO2.
The MTT assay was used to test the effect of PTEs on cell viability. The MDA-MB-231 (3 × 10^3 cells/well) and MCF-7 (4 × 10^3 cells/well) cells were seeded in a 96-well plate and cultured at 37 °C in a 5% CO2 incubator overnight. Afterwards, the medium was replaced with different concentrations of the title compounds (1, 3, 10, 30, and 100 μM). After incubation for 48 h, 10 μL of MTT solution (5 mg/mL) was added to each well and incubated for another 4 h. The optical density (OD) of the samples was measured using a microplate reader (Biotek, Burlington, VT, USA) at 570 nm. The inhibition rate (%) = [A570 (control) − A570 (compound)]/A570 (control) × 100%. The IC50 values were calculated using SPSS software version 17.0 (SPSS Inc., Chicago, IL, USA).
Background: Tetrazolium dyes change colour on reduction, which living cells bring about.

SMILES strings stand for the structures.

As a reminder, the IC50 is the concentration that inhibits the measured activity by half. Low values mean inhibition by little substance, high ones a need for much substance.

On to `COc1cc(/C=C/c2ccc(OCCCN3CCCCC3)cc2)cc(OC)c1` [Compound 2L, (E)-1-(3-(4-(3,5-dimethoxystyryl)phenoxy)propyl)piperidine], for which, in assay [1], the “expression of Bcl-2” value is “markedly downregulated”, the “level of Bax” value is on record as “upregulated”, the “protein expression of cleaved caspase-3” value is recorded as “increase” and the “protein expression of cleaved caspase-9” value was “increase”. Further, the “protein level of cleaved PARP” value in assay [1] is “effectively elevate”. For the same molecule, the “ΔΨm level after 2L” value in the assay with MCF-7 cells [2] was determined as 85.0%. In addition, in the assay with MCF-7 cells [3], the “percentage of cells in subG1” value was 7.83% and the “proportion of cells in G0/G1 phase” value was determined as 63.0%. In addition, the “ΔΨm level after 2L” value in the assay on MDA-MB-231 cells turned out to be 83.9%. Also, the midpoint of inhibition with MCF-7 cells [4], the IC50, lay at 11.7 ± 0.55 µM.
